# From patent publication US4374261A, “1-Ethyl-1,4-dihydro-6-(2-naphthyl)-4-oxo-nicotinic acid and esters thereof” (Hoffmann-La Roche Inc., priority 1981, dated 1983)
# Columns and labels:
# rat = test: Turning rat test (unilateral 6-OHDA lesion of the medial forebrain bundle); format: in vivo
# Experimental: Female rats weighing 150 g are anaesthetised with pentobarbital (50 mg kg^-1 i.p.) and fixed in a stereotaxic apparatus (David Kopf). A unilateral (right side) injection into the MFB (medial forebrain bundle) or 6-OHDA (6-hydroxy-dopamine), 3 μg as base, dissolved in 4 μl of Ringer solution containing 0.02% ascorbic acid, is carried out through a stainless-steel cannula (diameter 0.3 mm) connected to a microsyringe. The liquid is injected at a speed of 1 μl min^-1 by means of a high precision infusion pump. In order to reach the MFB (medial forebrain bundle), the following conditions are used: A=+3.8 mm, L (right)=0.9 mm, V=-3 mm according to the Atlas of Konig and Klippel.
# After 3 weeks recovery period, the operated rats are injected with apomorphine, 1 mg kg^1- i.p.. Those animals showing a regular contralateral (i.e., away from the lesioned side) turning, recorded automatically during 1 hour in a rotometer, are selected for further experiments. At least one week is allowed between each injection of screening compounds. […]
# The total number of ipsilateral or contralateral turns (full rotation around the vertical axes of the body) made by each rat, is automatically recorded over the time (usually 1 hour). 5 rats are injected for each dose and the mean of total turns per hour is determined.
# A compound is said active, if it produces more than 100 turns/hour. […] The results are expressed as: […]
# mouse = test: LD50 (mouse), acute toxicity; format: in vivo
# [1] = vs d-amphetamine and d-methamphetamine (Table I)
structure (smiles),measurement,setting,value
"CCn1cc(C(=O)O)c(=O)cc1-c1ccc2ccccc2c1 [1-ethyl-1,4-dihydro-6-(2-naphthyl)-4-oxonicotinic acid]",strength of action compared with d-amphetamine and d-methamphetamine,rat; [1],about the same strength of action
same,activity compared with nomifensin,rat; vs nomifensin,substantially superior to nomifensin
same,LD50 compared with d-amphetamine and d-methamphetamine,mouse; [1],substantially lower LD50
same,LD50 compared with nomifensin,mouse; vs nomifensin,about the same LD50
